The text below walks through data of US10736877B2, “Tryptamine-based ship inhibitors for the treatment of cancer” (THE RESEARCH FOUNDATION FOR THE STATE UNIVERSITY OF NEW YORK, priority 2015, dated 2020).

“Also recorded” adds a separate entry of the source.

In one series the test system is SHIP2. Description: Malachite green phosphatase release assay, SHIP2. It counts as biochemical, human. The settings on record: for SHIP2 Inhibition: Malachite green assay at 1mM. An excerpt: Detection of phosphatase enzymatic activity.
For the next series, the system named is HCT116. Kind of series: MTT cell viability assay, HCT116. The format is cell-based. The settings on record: for cell viability (MTT): HCT116.
The test system of the next series is CACO-2. Kind of series: MTT cell viability assay, CACO-2. The format is cell-based. The settings on record: for cell viability (MTT): CACO-2. For orientation: Formazan colour is commonly taken as a measure of viable cells.
The next series concerns breast cancer cells. The settings on record: cited from earlier work.
The subject of the next series is SHIP1. Description: Malachite green phosphatase release assay, SHIP1. The settings on record: for SHIP1 Inhibition: Malachite green assay at 1mM.
The subject of series [1] is PKB, pS6 and ERK phosphorylation in HCT116 cells. Description: Western blotting of signaling, HCT116 cells. It counts as cell-based, human. The settings on record: HCT116, serum starved; K149 10 μM 1 h, LY2940002 20 μM 1 h, EGF 10 ng/mL 15 minutes. The procedure: (§1) Western blotting. HCT116 and CACO-2 cells were serum starved by incubating for 2 h, after which cells were stimulated for 15 minutes with EGF (10 ng/mL), or stimulated for 1 h with LY2940002 (20 μM) or SHIP2 inhibitor K149 (10 μM). Subsequently, cells were washed with PBS and lysed on ice in 300 μL 2× concentrated Laemmli buffer (100 mM Tris-HCl (pH 6.8), 200 mM dithiothreitol, 4% SDS, 0.1% bromophenol blue, 20% glycerol, and 2% DTT) and boiled for 5 minutes at 95° C. Cell extracts were resolved by SDS-PAGE and transferred to polyvinylidene difluoride membranes (Merck chemicals BV, Amsterdam, the Netherlands). Membranes were blocked in 50% odyssey blocking buffer (LI-COR Biosciences, Lincoln, Nebr.) in PBS/0.05% Tween-20 and incubated overnight at 4° C. with primary antibody. After washing in PBS-T, membranes were incubated with IRDye® antibodies (LI-COR Biosciences, Lincoln, Nebr.) for 1 h. Detection was performed using Odyssey reader and analyzed using manufacturers software.
(In general: In western blotting, separated proteins are transferred to a membrane and probed.)

Series [2] has as its system PKB, pS6 and ERK phosphorylation in CACO-2 cells. Kind of series: Western blotting of signaling, CACO-2 cells. It counts as cell-based, human. The settings on record: CACO-2, serum starved; K149 10 μM 1 h, LY2940002 20 μM 1 h, EGF 10 ng/mL 15 minutes. As to the method: as §1
In series [3] the test system is MDSC, iTreg cells, nTreg cells, neutrophils. Description: Immune cell numbers and frequencies by flow cytometry in dosed mice. It counts as in vivo. The settings on record: 10 mg/kg in 5% DMSO for 6 days. The procedure: Mice were dosed for 6 days with […]
Another series concerns K562. Kind of series: Cell growth, K562 leukemia cell line. The settings on record: K562, increasing concentrations, compared with K103.
A further series deals with MCF-7. Description: Cell growth, MCF-7 breast cancer cell line. The settings on record: MCF-7, increasing concentrations, compared with K103.
The subject of the next series is OPM2. Description: Cell growth, OPM2 multiple myeloma cell line. The settings on record: OPM2, increasing concentrations, compared with K103.
The next series relates to MDA-MB-231. Kind of series: Cell growth, MDA-MB-231 breast cancer cell line. The settings on record: MDA-MB-231, increasing concentrations, compared with K103.
A short description of series [4]: High fat diet (diet-induced obese) mice: weight, bone health, toxicity. The settings on record: HFD mice, 2× week, i.p., 10 mg/kg, two weeks.
Series [5] relates to HCT116, RKO, LS-174T, CACO-2 and COLO 320. Kind of series: Cell viability in colorectal cancer cell lines with and without PI3K mutations. The settings on record: 3 cell lines with PIK3CA mutation, 2 without.
Procedure: Cell lines. […] Colorectal cancer cell lines HCT116 CACO-2, COLO 320, and RKO were cultured in Dulbecco's Modified Eagles Medium (DMEM, Lonza, Basel, Switzerland). […] All cell culture media were supplemented with 100 U/mL penicillin, 100 mg/mL streptomycin (Life technologies, Bleiswijk, NL) and 10% Fecal Calf Serum (FCS, Sigma-Aldrich, St. Louis, USA). Cells were maintained at 37° C. in a 5% CO2 humidified setting.
Cell viability assay. Cell viability was assessed using MTT assays. Cells were incubated with different concentrations of SHIP2 inhibitors, and/or chemotherapeutic agent 5-FU. 24 h, 48 h, 72 h, and 96 h after incubation cells were incubated with 5 mM MTT (3-(4,5-Dimethylthiazol-2-yl)-2,5-diphenyltetrazolium bromide) for 3 h and colorimetric changes were measured using a microplate reader (Model 680XR Bio-Rad) at 490 and 595 nm.

Procedure for K562: (§2) Cells were treated in triplicate or more with increasing concentrations of compounds.
(§3) All cell culture media were supplemented with 100 U/mL penicillin, 100 mg/mL streptomycin (Life technologies, Bleiswijk, NL) and 10% Fecal Calf Serum (FCS, Sigma-Aldrich, St. Louis, USA). Cells were maintained at 37° C. in a 5% CO2 humidified setting.
Procedure for MCF-7: as §2, §3
Procedure for MDA-MB-231: as §2, §3
Procedure for OPM2: as §2, §3
Procedure for SHIP1: Compounds were dissolved in 100% DMSO and then diluted to indicate final concentrations of performed assays (5% DMSO final concentration).
For this purpose, OPM2 cells were lysed in IP-lysis buffer (20 mM Tris, 150 mM NaCl, 1 mM EDTA, 1 mM EGTA, 1% Triton X100, 1 mM PMSF, Halt protease inhibitor), and SHIP1 or OCRL were immuno-precipitated using mouse IgG antibodies from Santa Cruz Biotechnology (Santa Cruz, Calif.). Beads were washed four times with IP lysis buffer and once with TBS/MgCl2 (10 mM) and resuspended in TBS/MgCl2. SHIP inhibitors (200 μM) were added to the beads for 5 minutes, after which immunoprecipitated SHIP1 was incubated in the presence of 100 μM PtdIns(3,4,5)P3 (Echelon Biosciences, Salt Lake City, Utah), whereas immunoprecipitated OCRL was incubated in the presence of 100 μM PtdIns(4,5)P2 for 30 minutes. Malachite green solution was added according to manufacturer's instructions, and the plate was read after 20 minutes.

One may read the melting point as the temperature of the solid-liquid transition. `Cc1c(CCN)c2ccccc2n1Cc1ccccc1Cl.Cl`: the melting point fell in the range of 161 to 169 °C.
Regarding `CSc1ccc2c(c1)c(CCN)c(C)n2Cc1ccc(Cl)cc1.Cl` [Compound K103, reference compound], the SHIP2 activity entry in the series with SHIP2 (recombinant SHIP2, 500 uM, vs vehicle control (DMSO), FIG. 5) was “inhibition of the SHIP2 activity”. The “cell viability (MTT)” value in the series with HCT116 (hydrochloride) was “dose-dependent reduction in cell viability; also recorded: induced cell death at lower concentrations in HCT116 cells than CACO-2 cells; also recorded: dose-dependent cell death”; in the series with CACO-2 (hydrochloride) it was “dose-dependent reduction in cell viability; also recorded: dose-dependent cell death”. The “killing breast cancer cells” value with breast cancer cells was “effective in killing breast cancer cells”.
Compound `Cc1c(CCN)c2ccccc2n1Cc1ccccc1.Cl` [Compound K123, 2-[1-benzyl-2-methyl-5-1H-3-yl] ethanaminium chloride] yielded a melting point of 158 to 161 °C. Also, in the series on SHIP1, the “SHIP1 Inhibition” value is reported as 15%.
In the case of `Cc1c(CCN)c2ccccc2n1Cc1ccccc1Cl.Cl` [Compound K124, 2-[1-(2-chlorobenzyl)-2-methyl-5-1H-3-yl] ethanaminium chloride], the “SHIP2 Inhibition” value in the series on SHIP2 was determined as 70%. The “SHIP1 Inhibition” value in the series with SHIP1 was 62%.
Regarding `CSc1ccc2c(c1)c(CCN)c(C)n2Cc1ccccc1.Cl` [Compound K125, 2-[1-benzyl-2-methyl-5-(methylmercapto)-1H-3-yl] ethanaminium chloride], the melting point was 178 to 189 °C. In the series with SHIP2, the “SHIP2 Inhibition” value amounted to 80%. The “SHIP1 Inhibition” value in the series on SHIP1 was determined as 64%.
For the compound `Cc1c(CCN)c2cc(Br)ccc2n1Cc1ccccc1Cl.Cl` [Compound K148, 2-[1-(2-chlorobenzyl)-2-methyl-5-(bromo)-1H-3-yl] ethanaminium chloride], the “SHIP2 Inhibition” value in the series with SHIP2 was determined as 70%. Moreover, the “SHIP1 Inhibition” value with SHIP1 was determined as 77%.
As to `CSc1ccc2c(c1)c(CCN)c(C)n2Cc1ccc(Cl)cc1Cl.Cl` [Compound K149, 2-[1-(2,4-dichlorobenzyl)-2-methyl-5-(methylmercapto)-1H-3-yl] ethanaminium chloride], in the series with HCT116, the “cell viability (MTT)” value is listed as “dose-dependent reduction in cell viability; also recorded: more sensitive to the K149 inhibitor; also recorded: induced cell death at lower concentrations in HCT116 cells than CACO-2 cells; also recorded: dose-dependent cell death”. For the same compound, the “5-FU-induced cell death with SHIP2 inhibitor co-treatment” value in the series on HCT116 (HCT116, K149 2 uM with increasing concentrations of 5-FU) is on record as “sensitizes CRC cells to the 5-FU treatment; also recorded: enhanced”. For the same compound, the “cell viability (MTT)” value in the series with CACO-2 is recorded as “dose-dependent reduction in cell viability; also recorded: more sensitive to the K149 inhibitor; also recorded: dose-dependent cell death”. For the same compound, the “5-FU-induced cell death with SHIP2 inhibitor co-treatment” value with CACO-2 (CACO-2, K149 2 uM with increasing concentrations of 5-FU) is on record as “sensitizes CRC cells to the 5-FU treatment; also recorded: enhanced”. In series [1], the ERK phosphorylation result is recorded as “not affected by either inhibitor; also recorded: affected by neither inhibitor”, the PKB phosphorylation entry was “diminished; also recorded: decreased” and the pS6 phosphorylation entry was “drastically increased”. In addition, in [2], the ERK phosphorylation result is given as “not affected by either inhibitor; also recorded: affected by neither inhibitor”, the PKB phosphorylation entry is “diminished; also recorded: decreased” and the pS6 phosphorylation result is on record as “drastically increased”. Also, in [3], the MDSC counts entry was “significant increases”, the iTreg cell counts result is on record as “significant increases”, the nTreg cell counts result was “significant increases” and the neutrophil counts entry is listed as “significant increases”. In addition, in the series on K562, the “control of cancer cell growth” value is recorded as “more effective at controlling cancer cell growth”. In the series with MCF-7, the “control of cancer cell growth” value is on record as “more effective at controlling cancer cell growth”. Also, the “control of cancer cell growth” value in the series on OPM2 is given as “more effective at controlling cancer cell growth”. Further, the “control of cancer cell growth” value in the series on MDA-MB-231 is reported as “more effective at controlling cancer cell growth”. In addition, the “effects compared to K103” value with SHIP1 (FIG. 1A-C, FIG. 1C is recombinant human tSHIP1) is reported as “superior effects compared to K103”. The “SHIP1 Inhibition” value with SHIP1 was 81%. Further, in series [4], the “% body weight” value was “significant reductions”, the total weight entry is listed as “significant reductions; also recorded: promotes weight loss” and the toxicity result was “No toxicity was observed”. Besides, in series [4] (DEXA), the “bone mineral content (BMC)” value is “no significant reduction or increase” and the “bone mineral density (BMD)” value is “no significant reduction or increase”. In series [5], the “sensitivity by PI3K (PIK3CA) mutational status” value is “no difference in sensitivity to SHIP2 inhibition based on PIK3CA mutational status; also recorded: No relationship between SHIP2 inhibition and PI3K mutational status exists”.
Compound `CSc1ccc2c(c1)c(CCN)c(C)n2Cc1ccc(Cl)cc1.Cl` [Compound K160, 2-[1-(4-chlorobenzyl)-2-methyl-5-(methylmercapto)-1H-3-yl] ethanaminium chloride] gave a melting point of 198 to 209 °C. Also, the “SHIP2 Inhibition” value in the series with SHIP2 came out at 61%. Further, the “SHIP1 Inhibition” value in the series on SHIP1 was found to be 78%.
“EGF: Epidermal Growth Factor, used to stimulate cellular signaling [reference compound]”: in [1], the ERK phosphorylation entry is listed as “increased”, the PKB phosphorylation result was “increased” and the pS6 phosphorylation entry is on record as “increased”. In series [2], the ERK phosphorylation entry was “increased”, the PKB phosphorylation result is listed as “increased” and the pS6 phosphorylation entry is on record as “increased”.
